Data as given in US20210040134A1, “COMBINATIONS OF MACROLIDE COMPOUNDS AND IMMUNE CHECKPOINT INHIBITORS” (ISR IMMUNE SYSTEM REGULATION HOLDING AB (PUBL), priority 2018, published 2021).

How the values were obtained:
human TLR2 = target: T1, human TLR2 (Homo sapiens, UniProt O60603); experiment: TLR2 reporter assay (HEK-293-TLR, SEAP); assay type: cell-based; conditions: concentrations up to 20 uM
T1 construct: host or cells: recombinant HEK-293-TLR cell lines
Description: Samples and controls were tested in duplicate on recombinant HEK-293-TLR cell lines using a cell reporter assay at Invivogen using their standard assay conditions. These cell lines functionally over-express human TLR2 protein as well as a reporter gene which is a secreted alkaline phosphatase (SEAP). The production of this reporter gene is driven by an NFkB inducible promoter. The TLR reporter cell lines activation results are given as optical density values (OD).
20 μl of each test article were used to stimulate the hTLR2 reporter cell lines in a 200 μl of final reaction volume. Samples were tested in duplicate, with at least two concentrations tested—20 uM and 10 uM.
Compounds were tested using a TLR2 reporter assay (see general methods) that measured for stimulation of the TLR2 receptor. Stimulatory effect was measured as an increase in optical density (OD) due to release of secreted alkaline phosphatase (SEAP) and is shown in table 4: […]

[1] = Human microsome stability assay; assay type: in vitro ADME; conditions: pH 7.4, human liver microsomes, read-out: T½
Description: Rate of metabolism in microsomes was tested as follows:
Human liver microsomes were diluted with buffer C (0.1 M Potassium Phosphate buffer, 1.0 mM EDTA, pH 7.4) to a concentration of […]. Microsomal stability studies were carried out by adding 30 μL of 1.5 μM compound spiking solution to wells (1.5 μL of 500 μM spiking solution (10 μL of 10 mM DMSO stock solution into 190 μL ACN to eventually generate final test concentration of 1 uM) and 18.75 μL of 20 mg/mL liver microsomes into 479.75 μL of Buffer C). All samples were pre-incubated for approximately 15 minutes at 37° C. Following this, the reaction was initiated by adding 15 μL of the NADPH solution (6 mM) with gentle mixing. Aliquots (40 μL) were removed at 0, 5, 15, 30 and 45 minutes and quenched with ACN containing internal standard (135 μL). Protein was removed by centrifugation (4000 rpm, 15 min) and the sample plate analysed for compound concentration by LC-MS/MS. Half-lives were then calculated by standard methods, comparing the concentration of analyte with the amount originally present.
The metabolic stability of the compounds of the invention was assessed in a standard human microsome stability assay (see general methods).

[2] = test system: E. coli, S. salivarius, L. casei, B. longum, M. luteus; experiment: MIC assay, summary over all bacterial strains tested; assay type: cell-based; conditions: any of the strains tested
Description: The bioactivity of macrolide compounds against 4 strains of common gut bacteria (Escherichia coli, Streptococcus salivarius subsp. salivarius, Lactobacillus casei and Bifidobacterium longum subsp. infantis) and common mammalian skin isolate Micrococcus luteus, was assessed using the Minimum Inhibitory Concentration (MIC) assay. Bacterial strains were purchased from DSMZ (Brunswick, Germany) except M. luteus which was obtained from NCIMB, and stored in 20% glycerol at −80° C. Stock solutions (100% DMSO) of positive controls (azithromycin and erythromycin), and of test compounds 1 and 2 were diluted in broth to working stock concentrations of 256 μg/ml (final assay testing concentration range 128 μg/ml to 0.00391 μg/ml). Stock solutions of all other compounds were diluted in broth to working stock concentrations of 128 μg/ml (final assay testing concentration range 64 μg/ml to 0.00195 μg/ml). Bacterial strains were cultivated in appropriate broth in an anaerobic chamber at 37° C., except for M. luteus which was incubated aerobically at 37° C. 18 h cultures were diluted in broth to an OD595 of 0.1 and then further diluted 1:10. In 96-well plates, in duplicate, 200 μl working stock of test compound was transferred to well 1 and serially diluted (1:2) in broth. 100 μl bacterial suspension was aliquoted into each well and mixed thoroughly. Appropriate sterility controls were included and plates were incubated in an anaerobic chamber, or aerobically (M. luteus) at 37° C. for 18 h. The MIC was determined to be the concentration of test compound in the first well with no visible growth.

Caco-2 cell monolayers = experiment: Caco-2 bidirectional permeability assay; assay type: in vitro ADME; conditions: Caco-2, 10 μM test article, 90 minutes
Description: (§1) 10 μM Test article was added to the apical (A) surface of Caco-2 cell monolayers (in HBSS buffer with 0.3% DMSO and 5 μM LY at 37 degrees C.) and compound permeation into the basolateral (B) compartment measured following 90 minutes incubation. This was also performed in the reverse direction (basolateral to apical) to investigate active transport. LC-MS/MS is used to quantify levels of both the test and standard control compounds. Efflux ratio was calculated by dividing the B to A permeability by the A to B permeability.
(§2) Drug permeability:Papp=(VA/(Area×time))×([drug]accepter/(([drug]initial,donor)×Dilution Factor)
(§3) The permeability of the compounds of the invention was assessed in a standard caco-2 bidirectional permeability assay (see general methods).

[3] = Caco-2 bidirectional permeability assay; assay type: in vitro ADME; conditions: human, Caco-2; B to A permeability divided by A to B permeability
Description: as §1, §2, §3

T1 sequence (O60603 21-784): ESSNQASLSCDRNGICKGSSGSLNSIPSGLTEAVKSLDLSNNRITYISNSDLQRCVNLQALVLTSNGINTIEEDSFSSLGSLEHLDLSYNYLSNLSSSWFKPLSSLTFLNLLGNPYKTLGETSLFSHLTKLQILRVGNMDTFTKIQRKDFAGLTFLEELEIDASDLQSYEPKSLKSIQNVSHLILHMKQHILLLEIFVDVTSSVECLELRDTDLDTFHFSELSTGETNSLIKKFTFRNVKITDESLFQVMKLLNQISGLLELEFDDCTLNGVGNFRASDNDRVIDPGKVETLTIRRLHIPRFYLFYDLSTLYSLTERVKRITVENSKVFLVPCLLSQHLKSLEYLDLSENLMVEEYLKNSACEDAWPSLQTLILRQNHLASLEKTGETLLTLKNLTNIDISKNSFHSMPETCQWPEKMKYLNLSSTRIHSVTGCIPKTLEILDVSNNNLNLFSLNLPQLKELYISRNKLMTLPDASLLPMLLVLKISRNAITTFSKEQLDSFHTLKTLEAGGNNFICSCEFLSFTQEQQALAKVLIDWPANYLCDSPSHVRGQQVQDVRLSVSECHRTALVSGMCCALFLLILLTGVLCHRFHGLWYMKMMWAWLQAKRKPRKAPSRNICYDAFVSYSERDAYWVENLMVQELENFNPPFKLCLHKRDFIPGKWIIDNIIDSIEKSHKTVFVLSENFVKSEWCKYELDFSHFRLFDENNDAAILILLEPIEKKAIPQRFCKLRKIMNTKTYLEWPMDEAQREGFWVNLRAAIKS

Row | Structure (SMILES) | TLR2 stimulation (in words) (human TLR2) | half-life at 1 uM [1] [h] | antibacterial activity against the bacterial strains tested (in words) [2] | Papp (Caco-2 cell monolayers) | efflux ratio at 90 minutes, 10 μM [3]
1 | CC[C@H]1OC(=O)[C@H](C)[C@@H](O[C@H]2C[C@@](C)(OC)[C@@H](O)[C@H](C)O2)[C@H](C)[C@@H](O[C@@H]2O[C@H](C)C[C@H](N(C)C)[C@H]2O)[C@](C)(O)C[C@@H](C)CN(C)[C@H](C)[C@@H](O)[C@]1(C)O [Azithromycin, reference compound] | little or no stimulation | 4.08 | potent activity | <0.14 × 10^6/cm · s^−1 | > 78
2 | CC[C@H]1OC(=O)[C@H](C)[C@@H](O[C@H]2CC(N(C)C)[C@H](O)C(C)O2)[C@H](C)[C@@H](O)[C@](C)(O)C[C@@H](C)C(=O)[C@H](C)[C@@H](O)[C@H]1C (some centres unmarked) [Compound 3] | little or no stimulation | – | no antibacterial activity | – | –
3 | CC[C@H]1OC(=O)[C@H](C)[C@@H](O[C@H]2CC(N(C)C)[C@H](O)C(C)O2)[C@H](C)[C@@H](O)[C@](C)(O)C[C@@H](C)CN(C)[C@H](C)[C@@H](O)[C@H]1C (some centres unmarked) [Compound 4] | – | – | no antibacterial activity | – | –
4 | CC1O[C@@H](O[C@H]2[C@H](C)[C@@H](O)[C@](C)(O)C[C@@H](C)C(=O)[C@H](C)[C@@H](O)[C@@H](C)[C@@H](C3CCC3)OC(=O)[C@@H]2C)CC(N(C)C)[C@@H]1O (some centres unmarked) [Compound 5] | – | – | no antibacterial activity | – | –
5 | CC[C@H]1OC(=O)[C@H](C)[C@@H](O[C@H]2CC(NC)[C@H](O)C(C)O2)[C@H](C)[C@@H](O)[C@](C)(O)C[C@@H](C)C(=O)[C@H](C)[C@@H](O)[C@H]1C (some centres unmarked) [Compound 6] | – | 1.82 | no antibacterial activity | – | –
6 | CC[C@H]1OC(=O)[C@H](C)[C@@H](O[C@H]2CC(N(C)C)[C@H](O)C(C)O2)[C@H](C)[C@@H](O)[C@](C)(O)C[C@@H](C)C(O)[C@H](C)[C@@H](O)[C@H]1C (some centres unmarked) [Compound 7] | – | 0.933 | no antibacterial activity | – | –
7 | CC1O[C@@H](O[C@H]2[C@H](C)[C@@H](O)[C@](C)(O)C[C@@H](C)C(=O)[C@H](C)[C@@H](O)[C@@H](C)[C@@H](C)OC(=O)[C@@H]2C)CC(N(C)C)[C@@H]1O (some centres unmarked) [Compound 8] | – | – | no antibacterial activity | – | –
8 | CC(O)[C@H]1OC(=O)[C@H](C)[C@@H](O[C@H]2C[C@@H](N(C)C)[C@H](O)[C@@H](C)O2)[C@H](C)[C@@H](O)[C@](C)(O)C[C@@H](C)C(=O)[C@H](C)[C@@H](O)[C@H]1C (some centres unmarked) [Compound 9, 14-hydroxy angolosamine erythronolide B] | – | 1.67 | no antibacterial activity | – | –
9 | CC[C@H]1OC(=O)[C@H](C)[C@@H](O[C@H]2CC(N(C)C)[C@H](O)C(C)O2)[C@H](C)[C@@H](O)[C@](C)(O)C[C@@H](C)N(C)C[C@H](C)[C@@H](O)[C@]1(C)O (some centres unmarked) [Compound 17] | stimulated TLR2 at concentrations down to 10 uM | – | – | – | –
10 | CC[C@H]1OC(=O)[C@H](C)[C@@H](O[C@H]2C[C@@](C)(OC)[C@@H](O)[C@H](C)O2)[C@H](C)[C@@H](O[C@@H]2O[C@H](C)C[C@H](N(C)C)[C@H]2O)[C@](C)(O)C[C@@H](C)C(=O)[C@H](C)[C@@H](O)[C@]1(C)O [Erythromycin, reference compound] | little or no stimulation | 0.517 | potent activity | – | –
